29 molecules from US20230234942A1, “COMPOUNDS FOR TREATING HUNTINGTON'S DISEASE” (PTC Therapeutics, Inc., priority 2020, published 2023) can be followed below.

pIC50: −log10 of the molar value.

In the assay the test system is Endogenous Huntingtin Protein. As to the kind of experiment: Endogenous Huntingtin Protein Assay (ELISA-based MSD electrochemiluminescence). Type of assay: cell-based. Particulars: Table 2; MSD plates coated with MW1 (expanded polyglutamine) or MAB2166 capture antibody; "inactive" = result above the detection limit of the assay. The procedure:
Compounds of Formula (I) were tested using the Meso Scale Discovery (MSD) Assay provided in International Application No. PCT/US2016/066042, filed on Dec. 11, 2016 and claiming priority to U.S. Provisional Application 62/265,652 filed on Dec. 10, 2015, the entire contents of which are incorporated herein by reference.
The Endogenous Huntingtin Protein assay used in Biological Example 1 was developed using the ELISA-based MSD electrochemiluminescence assay platform.
Meso Scale Discovery (MSD) 96-well or 384-well plates were coated overnight at 4° C. with MW1 (expanded polyglutamine) or MAB2166 monoclonal antibody (for capture) at a concentration of 1 μg/mL in PBS (30 μL per well). Plates were then washed three times with 300 μL wash buffer (0.05% Tween-20 in PBS) and blocked (100 μL blocking buffer; 5% BSA in PBS) for 4-5 hours at room temperature with rotational shaking and then washed three times with wash buffer.
Samples (25 μL) were transferred to the antibody-coated MSD plate and incubated overnight at 4° C. After removal of the lysates, the plate was washed three times with wash buffer, and 25 μL of #56565 (Cell signaling; rabbit monoclonal) secondary antibody (diluted to 0.25 μg/mL in 0.05% Tween-20 in blocking buffer) was added to each well and incubated with shaking for 1 Hour at room temperature. Following incubation with the secondary antibody, the wells were rinsed with wash buffer after which 25 μL of goat anti-rabbit SULFO TAG secondary detection antibody (required aspect of the MSD system) (diluted to 0.25 μg/mL in 0.05% Tween-20 in blocking buffer) was added to each well and incubated with shaking for 1 hour at room temperature. After rinsing three times with wash buffer, 150 μL of read buffer T with surfactant (MSD) were added to each empty well, and the plate was imaged on a SI 6000 imager (MSD) according to manufacturers' instructions provided for 96- or 384-well plates.
On to `COc1cc(-c2ccc(-c3cnc(N4C[C@@H](C(C)C)N[C@@H](C)C4)nn3)c(O)c2)ncn1` [Cpd 227, 5-(6-methoxypyrimidin-4-yl)-2-{3-[(3S,5R)-3-methyl-5-(propan-2-yl)piperazin-1-yl]-1,2,4-triazin-6-yl}phenol], for which the pIC50 (commonly −log10 of the IC50, conventionally taken in molar units) is 7.43.
On to `Oc1cc(-c2cn[nH]c2)ccc1-c1cnc(N2CCN3CCOCC3C2)nn1` (stereo not drawn) [Cpd 64, 2-[3-(hexahydropyrazino[2,l-c][1,4]oxazin-8(1H)-yl)-1,2,4-triazin-6-yl]-5-(1H-pyrazol-4-yl)phenol], for which the “IC50 (nM)” value was “inactive”.
In the case of `CC[C@H]1CN(c2ncc(-c3ccc(-c4cc(OC)ncn4)cc3O)nn2)C[C@@H](C)N1` [Cpd 234, 2-{3-[(3S,5R)-3-ethyl-5-methylpiperazin-1-yl]-1,2,4-triazin-6-yl}-5-(6-methoxypyrimidin-4-yl)phenol], the pIC50 is 8.06.
On the same count and under the same terms, the result for `CC(C)[C@H]1CN(c2ncc(-c3ccc(-c4ncccn4)cc3O)nn2)CCN1` [Cpd 151, 2-{3-[(3S)-3-(propan-2-yl)piperazin-1-yl]-1,2,4-triazin-6-yl}-5-(pyrimidin-2-yl)phenol] reads 6.69.
Still for that read-out and setting: the result for `CC(C)[C@@H]1CN(c2ncc(-c3ccc(-c4cn[nH]c4F)cc3O)nn2)C[C@H](C)N1` [Cpd 217, 5-(5-fluoro-1H-pyrazol-4-yl)-2-{3-[(3S,5R)-3-methyl-5-(propan-2-yl)piperazin-1-yl]-1,2,4-triazin-6-yl]phenol] reads 7.17; that for `CC(C)[C@H]1CN(c2ncc(-c3ccc(-c4cnn5cccnc45)cc3O)nn2)CCN1` [Cpd 243, 2-{3-[(3S)-3-(propan-2-yl)piperazin-1-yl]-1,2,4-triazin-6-yl}-5-(pyrazolo[1,5-a]pyrimidin-3-yl)phenol], 6.66; that for `[2H]C([2H])([2H])Oc1cc(-c2ccc(-c3cnc(N4CCN[C@@H](C(C)(C)C)C4)nn3)c(O)c2)ncn1` [Cpd 17, 2-{3-[(3S)-3-tert-butylpiperazin-1-yl]-1,2,4-triazin-6-yl}-5-{6-[(^2H3)methyloxy]pyrimidin-4-yl}phenol], 7.85.
On the same count and under the same terms, to `Cc1cn2cc(-c3ccc(-c4cnc(N5C[C@@H](C)N[C@@H](C)C5)nn4)c(O)c3)cc(F)c2n1` [Cpd 66, 2-{3-[(3R,5S)-3,5-dimethylpiperazin-1-yl]-1,2,4-triazin-6-yl]-5-(8-fluoro-2-methylimidazo[1,2-a]pyridin-6-yl)phenol] belongs 8.43; to `CC(C)[C@H]1CN(c2ncc(-c3ccc(-c4ccc5nsnc5c4)cc3O)nn2)CCN1` [Cpd 263, 5-(2,1,3-benzothiadiazol-5-yl)-2-{3-[(3S)-3-(propan-2-yl)piperazin-1-yl]-1,2,4-triazin-6-yl]phenol], 6.67; to `Cc1nc2c(C)cc(-c3ccc(-c4cnc(N5C[C@@H](C)N[C@@H](C)C5)nn4)c(O)c3)nn2n1` [Cpd 83, 2-{3-[(3R,5S)-3,5-dimethylpiperazin-1-yl]-1,2,4-triazin-6-yl}-5-(2,8-dimethyl[1,2,4]triazolo[1,5-b]pyridazin-6-yl)phenol], 8.25.
Molecule `Cc1nc2nc(-c3ccc(-c4cnc(N5CCN[C@@H](C6CC6)C5)nn4)c(O)c3)nc(C)c2[nH]1` [Cpd 84, 2-{3-[(3S)-3-cyclopropylpiperazin-1-yl]-1,2,4-triazin-6-yl]-5-(6,8-dimethyl-7H-purin-2-yl)phenol] gave a pIC50 of 8.23.
`CC(C)[C@H]1CN(c2ncc(-c3ccc(-c4ncn(C)n4)cc3O)nn2)CCN1` [Cpd 259, 5-(1-methyl-1H-1,2,4-triazol-3-yl)-2-{3-[(3S)-3-(propan-2-yl)piperazin-1-yl]-1,2,4-triazin-6-yl}phenol]: the pIC50 was 6.47.
Regarding `Cc1cn2nc(-c3ccc(-c4cnc(N5CCN[C@H](C)C5)nn4)c(O)c3)cc(C)c2n1` [Cpd 98, 5-(2,8-dimethylimidazo[1,2-b]pyridazin-6-yl)-2-{3-[(3R)-3-methylpiperazin-1-yl]-1,2,4-triazin-6-yl]phenol], the pIC50 was 7.99.
On the same count and under the same terms, to `[2H]C([2H])([2H])Oc1cc(-c2ccc(-c3cnc(N4CCN[C@@H](C5CC5)C4)nn3)c(O)c2)ncn1` [Cpd 2, 2-{3-[(3S)-3-cyclopropylpiperazin-1-yl]-1,2,4-triazin-6-yl}-5-{6-[(^2H3)methyloxy]pyrimidin-4-yl}phenol] belongs 8.41; to `Cc1cn2cc(-c3ccc(-c4cnc(N5CCN[C@@H](C(C)C)C5)nn4)c(O)c3)ncc2n1` [Cpd 141, 5-(2-methylimidazo[1,2-a]pyrazin-6-yl)-2-{3-[(3S)-3-(propan-2-yl)piperazin-1-yl]-1,2,4-triazin-6-yl}phenol], 8.64; to `Cc1cn2nc(-c3ccc(-c4cnc(N5C[C@@H](C)N[C@@H](C)C5)nn4)c(O)c3)ccc2n1` [Cpd 75, 2-{3-[(3R,5S)-3,5-dimethylpiperazin-1-yl]-1,2,4-triazin-6-yl}-5-(2-methylimidazo[1,2-b]pyridazin-6-yl)phenol], 8.37.
Same read-out and setting: the result for `CC(C)[C@H]1CN(c2ncc(-c3ccc(-c4ncc(C#N)s4)cc3O)nn2)CCN1` [Cpd 272, 2-(3-hydroxy-4-{3-[(3S)-3-(propan-2-yl)piperazin-1-yl]-1,2,4-triazin-6-yl}phenyl)-1,3-thiazole-5-carbonitrile] reads 6.45; that for `COc1cc(-c2cc(O)c(-c3cnc(N4CCN[C@@H](C(C)C)C4)nn3)c(F)c2)ncn1` [Cpd 28, 3-fluoro-5-(6-methoxypyrimidin-4-yl)-2-{3-[(3S)-3-(propan-2-yl)piperazin-1-yl]-1,2,4-triazin-6-yl}phenol], 7.58.
On the same count and under the same terms, the result for `COc1cc(-c2ccc(-c3cnc(N4C[C@@H](C)N[C@@H](C5CC5)C4)nn3)c(O)c2)ncn1` [Cpd 235, 2-{3-[(3S,5R)-3-cyclopropyl-5-methylpiperazin-1-yl]-1,2,4-triazin-6-yl}-5-(6-methoxypyrimidin-4-yl)phenol] reads 8.09; that for `Oc1cc(-c2c[nH]nc2F)ccc1-c1cnc(N2CCN[C@@H](C3CC3)C2)nn1` [Cpd 1, 2-{3-[(3S)-3-cyclopropylpiperazin-1-yl]-1,2,4-triazin-6-yl}-5-(3-fluoro-1H-pyrazol-4-yl)phenol], 8.68; that for `C[C@@H]1CN(c2ncc(-c3ccc(-c4cc5nn(C)nc5cn4)cc3O)nn2)C[C@H](C)N1` [Cpd 198, 2-{3-[(3R,5S)-3,5-dimethylpiperazin-1-yl]-1,2,4-triazin-6-yl}-5-(2-methyl-2H-[1,2,3]triazolo[4,5-c]pyridin-6-yl)phenol], 7.90.
The molecule `[2H]C([2H])([2H])n1cc(-c2ccc(-c3cnc(N4C[C@@H](C)N[C@@H](C5CCC5)C4)nn3)c(O)c2)cn1` [Cpd 238, 2-{3-[(3S,5R)-3-cyclobutyl-5-methylpiperazin-1-yl]-1,2,4-triazin-6-yl}-5-[l-(^2H3)methyl-1H-pyrazol-4-yl]phenol] gave a pIC50 of 7.26.
Still for that read-out and setting: to `C[C@@H]1CN(c2ncc(-c3ccc(-c4ccc5nn(C)cc5c4)cc3O)nn2)C[C@H](C)N1` [Cpd 72, 2-{3-[(3R,5S)-3,5-dimethylpiperazin-1-yl]-1,2,4-triazin-6-yl]-5-(2-methyl-2H-indazol-5-yl)phenol] belongs 8.39.
The same measure, in the same setting: the result for `C[C@@H]1CN(c2ncc(-c3ccc(-c4cc(F)c5nn(C)cc5c4)cc3O)nn2)C[C@H](C)N1` [Cpd 79, 2-{3-[(3R,5S)-3,5-dimethylpiperazin-1-yl]-1,2,4-triazin-6-yl}-5-(7-fluoro-2-methyl-2H-indazol-5-yl)phenol] reads 8.28.
Consider `CCc1cc(-c2ccc(-c3cnc(N4CCN[C@@H](C(C)C)C4)nn3)c(O)c2)ncn1` [Cpd 150, 5-(6-ethylpyrimidin-4-yl)-2-{3-[(3S)-3-(propan-2-yl)piperazin-1-yl]-1,2,4-triazin-6-yl}phenol], for which the pIC50 is 6.86.
Still for that read-out and setting: to `Cc1cn2cc(-c3ccc(-c4cnc(N5CCN[C@@H](C(C)C)C5)nn4)c(O)c3)nc(C)c2n1` [Cpd 96, 5-(2,8-dimethylimidazo[1,2-a]pyrazin-6-yl)-2-{3-[(3S)-3-(propan-2-yl)piperazin-1-yl]-1,2,4-triazin-6-yl]phenol] belongs 8.07; to `Oc1cc(-c2cn[nH]c2)ccc1-c1cnc(N2CCNC(C3CC3)C2)nn1` (centres unmarked) [Cpd 5, 2-[3-(3-cyclopropylpiperazin-1-yl)-1,2,4-triazin-6-yl]-5-(1H-pyrazol-4-yl)phenol], 8.22.
Consider `CC(C)[C@H]1CN(c2ncc(-c3ccc(-c4ccc5nccn5c4)cc3O)nn2)CCN1` [Cpd 114, 5-(imidazo[1,2-a]pyridin-6-yl)-2-{3-[(3S)-3-(propan-2-yl)piperazin-1-yl]-1,2,4-triazin-6-yl}phenol], for which the pIC50 was 7.26.
On the same count and under the same terms, the result for `CC[C@@H]1CN(c2ncc(-c3ccc(-c4cc(OC)ncn4)cc3O)nn2)C[C@H](C)N1` [Cpd 228, 2-{3-[(3R,5S)-3-ethyl-5-methylpiperazin-1-yl]-1,2,4-triazin-6-yl}-5-(6-methoxypyrimidin-4-yl)phenol] reads 7.14.
